Measured values reported in US11363979B2, “Addressable vertical nanowire probe arrays and fabrication methods” (priority 2016, dated 2022).
Where two headings read alike, the source gives them in different places.

Key:
[1] = tested on: mouse hippocampal neurons; experiment: Pharmacological stimulation and inhibition of neurons recorded on the vertical Si nanowire probe array; type: cell-based
[2] = tested on: human iPSC-derived neurons; type: cell-based

| Compound | cellular activity / neuronal spiking [1] | cell activity (frequency and amplitude) compared to the baseline spontaneous activity measured on the same channel ([1]; intracellular configuration, injection, nanowire recording) | activity relative to the baseline recording [1] | firing (rate) of spontaneous action potentials [1] | activity relative to the baseline recording ([1]; extracellular configuration, injection, nanowire recording) | firing (rate) of spontaneous action potentials [2] |
| --- | --- | --- | --- | --- | --- | --- |
| glutamate | increased | increase of the cell activity with respect to frequency and amplitude | – | – | – | – |
| NC1=N[C@H](O)[C@H]2[C@H]3O[C@]4(O)O[C@@H]([C@@H](O)[C@@]2(N1)[C@@H]4O)[C@]3(O)CO [TTX, tetrodotoxin] | neuronal spiking vanished | – | eliminated | – | – | – |
| [Cl-].[K+] [KCl] | increased | – | – | increased firing rate | increased activity relative to the baseline recording | increased firing rate |
